Results published in patent publication US20200254211A1, “STRESS RELIEVING DEVICE FOR VEHICLES” (DENSO CORPORATION, priority 2015, published 2020).

What was measured:
[1] = system: α-II waves and θ waves in the brain; assay: human brain waves recorded in an environment where cedrol is volatilized (FIG. 3); format: in vivo
Description: Further, from the start of volatilization of cedrol and until cedrol concentration reaches 300 μg/m^3, the activity voltage of α-II waves is greater than that of θ waves, and it is understood that this is suitable for relaxing a person. Further, once cedrol concentration exceeds 300 μg/m^3, the activity voltage of […] is greater than that of α-II waves, and it is understood that this is suitable for promoting sleepiness in a person.

parasympathetic nerves = assay: parasympathetic nerve state with respect to cedrol concentration (FIG. 4); format: in vivo, human
Description: Then, once cedrol concentration exceeds 300 μg/m^3, due to excessive relaxation, sleepiness is promoted.

[2] = system: parasympathetic nerve state (relaxation state) of test subjects; assay: stress substitution experiment (FIG. 6); format: in vivo, human; conditions: average of six test subjects, cedrol in diethylene glycol monobutyl ether
Description: In this experiment, instead of actual driving, a stress substitution experiment is applied to confirm effects. The stress substitution experiment may be, for example, repetitively performing simple calculations, handling heavy objects with difficult posture, etc.
In the above stress substitution experiment, with respect to an initial state, the parasympathetic nerve state (relaxation state) of the test subjects decreases when stressed. […] In other words, it is possible for a mixture solvent of cedrol is change an irritated state to a relaxed state.

humans = conditions: general statement; cited from earlier work

C[C@@H]1CC[C@H]2C(C)(C)[C@H]3C[C@@]12CC[C@@]3(C)O [cedrol]
cedrol concentration at which activity voltage of α-II waves is greater than that of θ waves (suitable for relaxing) ([1]; from the start of volatilization): ≤ 300 μg/m^3 | activity voltages of α-II waves (relaxation) and θ waves (falling asleep) ([1]; human brain waves, volatilized cedrol, with rising concentration): both increase as the concentration of cedrol increases | cedrol concentration at which activity voltage of θ waves is greater than that of α-II waves (promoting sleepiness) ([1]; volatilized cedrol in air): exceeds 300 μg/m^3 | lower limit of cedrol for exhibiting a relaxation effect (parasympathetic nerves; volatilization amount in vehicle cabin): 0.5 μg/m^3 | cedrol concentration at which sleepiness is promoted due to excessive relaxation (parasympathetic nerves; volatilized cedrol in air): exceeds 300 μg/m^3 | parasympathetic nerve state with increasing cedrol concentration (parasympathetic nerves; volatilized cedrol in air): parasympathetic nerves become significant | parasympathetic nerve state (relaxation state) after release of mixture solvent vapor to stressed test subjects [2]: increases to above the initial state | physiological effects in humans (humans): lowering heat rate, respiratory rate, blood pressure, etc. in humans, and also increasing α-II waves in the brain
